In experiment [1] the target is T1, recombinant human CYP11B2 (Homo sapiens, UniProt P19099).
T1 construct: made in house; host or cells: V79-4 cells (Chinese hamster lung fibroblasts); enzyme-enriched microsomal fraction of the lysate
T1 sequence (P19099 25-503): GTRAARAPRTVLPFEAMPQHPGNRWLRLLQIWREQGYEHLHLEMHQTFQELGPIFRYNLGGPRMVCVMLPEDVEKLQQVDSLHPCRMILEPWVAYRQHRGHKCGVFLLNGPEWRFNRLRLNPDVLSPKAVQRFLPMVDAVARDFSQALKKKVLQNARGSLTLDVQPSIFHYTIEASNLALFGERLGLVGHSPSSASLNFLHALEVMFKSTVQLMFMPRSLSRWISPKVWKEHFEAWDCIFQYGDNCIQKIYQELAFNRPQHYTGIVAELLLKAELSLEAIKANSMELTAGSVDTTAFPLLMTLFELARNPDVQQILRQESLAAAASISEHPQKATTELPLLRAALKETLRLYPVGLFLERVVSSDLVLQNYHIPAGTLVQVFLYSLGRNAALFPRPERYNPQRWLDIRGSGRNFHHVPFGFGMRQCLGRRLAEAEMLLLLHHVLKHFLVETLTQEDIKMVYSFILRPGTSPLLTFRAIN
Briefly: CYP11B2 enzyme assay with enzyme enriched microsomes, aldosterone measured by LC-MS. Particulars: microsomes from V79-4 cells; 11-deoxycorticosterone at Km; read-out: hCYP11B2 IC50. Type of experiment: biochemical. The procedure: (§1) V79-4 cells expressing recombinant andrenodoxin and andrenodoxin reductase with either recombinant human CYP11B2 or CYP11B1 were prepared according to methods previously described (LaSala et al 2009 Anal Bioch 394:56-61). An enzyme enriched microsomal fraction was prepared from cellular lysates and subsequently used as the enzyme source for determining inhibitor IC50s. The substrate Km values were experimentally determined for 11-deoxycorticosterone (CYP11B2 substrate) and 11-deoxycortisol (CYP11B1 substrate). Enzyme assays for inhibitor screening employed CYP11B2 and CYP11B1 enzyme enriched microsomes and were run at the Km of the respective substrates. Products of the enzyme reactions, aldosterone for CYP11B2 or cortisol for CYP11B1, were measured by LC-MS. Assays were run under conditions of less than 20% substrate turnover. Inhibitor IC50s were generated by determining the product formation in the absence or presence of inhibitor at various concentrations. In the absence of the test compound, the product formed (Pt) in each data set was defined as 100% activity. In the absence of enzyme, the product formed (Pb) in each data set was defined as 0% activity. The percent activity in the presence of each inhibitor was calculated according to the following equation: % activity=(P−Pb)/(Pt−Pb), where P=the product formed in the presence of the inhibitor. The IC50 value was defined as the inhibitor concentration causing a 50% decrease in activity relative to the no inhibitor control reaction.

Experiment [2] has as its target T2, recombinant human CYP11B1 (Homo sapiens, UniProt P15538).
T2 construct: made in house; host or cells: V79-4 cells (Chinese hamster lung fibroblasts); enzyme-enriched microsomal fraction of the lysate
T2 sequence (P15538 25-503): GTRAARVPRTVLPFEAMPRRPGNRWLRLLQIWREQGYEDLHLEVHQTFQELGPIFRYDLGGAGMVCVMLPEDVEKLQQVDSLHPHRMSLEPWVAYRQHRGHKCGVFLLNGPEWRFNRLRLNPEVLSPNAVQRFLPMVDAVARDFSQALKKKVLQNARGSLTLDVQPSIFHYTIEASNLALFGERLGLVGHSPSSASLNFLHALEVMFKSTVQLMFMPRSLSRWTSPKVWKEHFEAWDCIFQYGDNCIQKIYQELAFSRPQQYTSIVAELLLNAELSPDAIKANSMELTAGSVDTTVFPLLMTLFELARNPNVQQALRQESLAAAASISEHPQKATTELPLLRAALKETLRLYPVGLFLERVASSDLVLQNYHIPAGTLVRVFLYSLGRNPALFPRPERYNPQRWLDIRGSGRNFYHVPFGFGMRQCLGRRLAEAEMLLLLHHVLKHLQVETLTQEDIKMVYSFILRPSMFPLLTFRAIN
The experiment is described as follows: CYP11B1 enzyme assay with enzyme enriched microsomes, cortisol measured by LC-MS. The class given is biochemical. Particulars: microsomes from V79-4 cells; 11-deoxycortisol at Km; read-out: hCYP11B1 IC50. How it is done:
as §1

A value given as a limit tells only on which side of the number the result lay.

By IC50 is commonly meant the point on the concentration scale where inhibition reaches its midpoint.

For `Fc1ccc2nc(-n3cnc4ccccc43)n(C3CC3)c2c1` [Example 1, 1′-cyclopropyl-6′-fluoro-1′H-1,2′-bibenzo[d]imidazole], the values for the 50% inhibitory concentration (IC50) in experiment [1] and in experiment [2] were 1 to 100 nM and 100 to 1000 nM, respectively.
`Fc1ccc2nc(-n3cnc4ccccc43)n(C3CC3)c2c1F` [Example 2, 1′-cyclopropyl-6′,7′-difluoro-1′H-1,2′-bibenzo[d]imidazole]: the concentration for half-maximal inhibition (IC50) in experiment [1] lay in the range of 1 to 100 nM; in experiment [2] it was 1000 to 10000 nM.
On the same counts, the results for `Fc1ccc2nc(-n3cnc4c(F)c(F)ccc43)n(C3CC3)c2c1` [Example 3, 1′-cyclopropyl-4,5,6′-trifluoro-1′H-1,2′-bibenzo[d]imidazole] are 1000 to 10000 nM and > 10000 nM.
On the same counts, the results for `Fc1ccc2nc(-n3cnc4cc(F)c(F)cc43)n(C3CC3)c2c1` [Example 4, 1′-cyclopropyl-5,6,6′-trifluoro-1′H-1,2′-bibenzo[d]imidazole] are 1 to 100 nM and 1000 to 10000 nM.
Take `COc1cc2ncn(-c3nc4ccc(F)cc4n3C3CC3)c2cc1OC` [Example 5, 1′-cyclopropyl-6′-fluoro-5,6-dimethoxy-1′H-1,2′-bibenzo[d]imidazole]: the IC50 fell in the range of 1 to 100 nM in experiment [1] and 1000 to 10000 nM in experiment [2].
In the same order, the values of `N#Cc1ccc2c(c1)ncn2-c1nc2ccc(F)cc2n1C1CC1` [Example 6, 1′-cyclopropyl-6′-fluoro-1′H-[1,2′-bibenzo[d]imidazole]-5-carbonitrile] are 1 to 100 nM and 1000 to 10000 nM.
On the same counts, the results for `N#Cc1ccc2ncn(-c3nc4ccc(F)cc4n3C3CC3)c2c1` [Example 7, 1′-cyclopropyl-6′-fluoro-1′H-[1,2′-bibenzo[d]imidazole]-6-carbonitrile] are 100 to 1000 nM and > 10000 nM.
In the same order, the values of `Cc1ccc2c(c1)ncn2-c1nc2ccc(F)cc2n1C1CC1` [Example 8, 1′-cyclopropyl-6′-fluoro-5-methyl-1′H-1,2′-bibenzo[d]imidazole] are 1 to 100 nM and 100 to 1000 nM.
`Cc1ccc2ncn(-c3nc4ccc(F)cc4n3C3CC3)c2c1` [Example 9, 1′-cyclopropyl-6′-fluoro-6-methyl-1′H-1,2′-bibenzo[d]imidazole]: the IC50 in experiment [1] fell in the range of 1 to 100 nM; in experiment [2] it was 100 to 1000 nM.
In the case of `CCc1ccc2c(c1)ncn2-c1nc2ccc(F)cc2n1C1CC1` [Example 10, 1′-cyclopropyl-5-ethyl-6′-fluoro-1′H-1,2′-bibenzo[d]imidazole], the half-inhibitory concentration (IC50) in experiment [1] is 1 to 100 nM; in experiment [2] it was 100 to 1000 nM.
In the same order, the values of `CCc1ccc2ncn(-c3nc4ccc(F)cc4n3C3CC3)c2c1` [Example 11, 1′-cyclopropyl-6-ethyl-6′-fluoro-1′H-1,2′-bibenzo[d]imidazole] are 1 to 100 nM and 1000 to 10000 nM.
For the molecule `COc1ccc2c(c1)ncn2-c1nc2ccc(F)cc2n1C1CC1` [Example 12, 1′-cyclopropyl-6′-fluoro-5-methoxy-1′H-1,2′-bibenzo[d]imidazole], the IC50 in experiment [1] lay in the range of 1 to 100 nM; in experiment [2], 100 to 1000 nM.
In the same order, the values of `COc1ccc2ncn(-c3nc4ccc(F)cc4n3C3CC3)c2c1` [Example 13, 1′-cyclopropyl-6′-fluoro-6-methoxy-1′H-1,2′-bibenzo[d]imidazole] are 1 to 100 nM and 100 to 1000 nM.
With `Cc1cccc2c1ncn2-c1nc2ccc(F)cc2n1C1CC1` [Example 14, 1′-cyclopropyl-6′-fluoro-4-methyl-1′H-1,2′-bibenzo[d]imidazole], the IC50 in experiment [1] was 1000 to 10000 nM; in experiment [2] it was > 10000 nM.
On the same counts, the results for `Fc1cc2ncn(-c3nc4ccc(F)c(F)c4n3C3CC3)c2cc1F` [Example 15, 1′-cyclopropyl-5,6,6′,7′-tetrafluoro-1′H-1,2′-bibenzo[d]imidazole] are 1 to 100 nM and 1000 to 10000 nM.
On the same counts, the results for `Fc1cc2nc(-n3cnc4ccccc43)n(C3CC3)c2cc1F` [Example 16, 1′-cyclopropyl-5′,6′-difluoro-1′H-1,2′-bibenzo[d]imidazole] are 1 to 100 nM and 100 to 1000 nM.
In the same order, the values of `Fc1cc2ncn(-c3nc4cc(F)c(F)cc4n3C3CC3)c2cc1F` [Example 17, 1′-cyclopropyl-5,5′,6,6′-tetrafluoro-1′H-1,2′-bibenzo[d]imidazole] are 1 to 100 nM and 1000 to 10000 nM.
Consider `Fc1ccc2c(c1)ncn2-c1nc2ccc(F)cc2n1C1CC1` [Example 18, 1′-cyclopropyl-5,6′-difluoro-1′H-1,2′-bibenzo[d]imidazole], for which the results for the half-inhibitory concentration (IC50) in experiment [1] and in experiment [2] were 1 to 100 nM and 100 to 1000 nM, respectively.
In the case of `Fc1ccc2ncn(-c3nc4ccc(F)cc4n3C3CC3)c2c1` [Example 19, 1′-cyclopropyl-6,6′-difluoro-1′H-1,2′-bibenzo[d]imidazole], the IC50 was in the range of 1 to 100 nM in experiment [1] and 1000 to 10000 nM in experiment [2].
In the case of `Fc1ccc2nc(-n3cnc4cc(C(F)(F)F)ccc43)n(C3CC3)c2c1` [Example 20, 1′-cyclopropyl-6′-fluoro-5-(trifluoromethyl)-1′H-1,2′-bibenzo[d]imidazole], the IC50 in experiment [1] is 1 to 100 nM; in experiment [2] it was 100 to 1000 nM.
In the same order, the values of `Fc1ccc2nc(-n3cnc4ccc(C(F)(F)F)cc43)n(C3CC3)c2c1` [Example 21, 1′-cyclopropyl-6′-fluoro-6-(trifluoromethyl)-1′H-1,2′-bibenzo[d]imidazole] are 1 to 100 nM and 1000 to 10000 nM.
Consider `CCn1c(-n2cnc3cc(F)c(F)cc32)nc2ccc(C#N)cc21` [Example 22, 1′-ethyl-5,6-difluoro-1′H-[1,2′-bibenzo[d]imidazole]-6′-carbonitrile], for which the IC50 lay within 1 to 100 nM in experiment [1] and 1000 to 10000 nM in experiment [2].
In the same order, the values of `N#Cc1ccc2c(c1)ncn2-c1nc2cc(F)c(F)cc2n1C1CC1` [Example 23, 1′-cyclopropyl-5′,6′-difluoro-1′H-[1,2′-bibenzo[d]imidazole]-5-carbonitrile] are 1 to 100 nM and 1000 to 10000 nM.
In the same order, the values of `N#Cc1ccc2ncn(-c3nc4cc(F)c(F)cc4n3C3CC3)c2c1` [Example 24, 1′-cyclopropyl-5′,6′-difluoro-1′H-[1,2′-bibenzo[d]imidazole]-6-carbonitrile] are 100 to 1000 nM and > 10000 nM.
On the same counts, the results for `N#Cc1ccc2nc(-n3cnc4cc(F)c(F)cc43)n(C3CC3)c2c1` [Example 25, 1′-cyclopropyl-5,6-difluoro-1′H-[1,2′-bibenzo[d]imidazole]-6′-carbonitrile] are 1 to 100 nM and 1000 to 10000 nM.
In the case of `Fc1cc2ncn(-c3nc4ccc(Cl)cc4n3C3CC3)c2cc1F` [Example 26, 6′-chloro-1′-cyclopropyl-5,6-difluoro-1′H-1,2′-bibenzo[d]imidazole], the values for the IC50 in experiment [1] and in experiment [2] were 1 to 100 nM and 1000 to 10000 nM, respectively.
In the same order, the values of `Fc1ccc2nc(-n3cnc4cc(OC(F)(F)F)ccc43)n(C3CC3)c2c1` [Example 27, 1′-cyclopropyl-6′-fluoro-5-(trifluoromethoxy)-1′H-1,2′-bibenzo[d]imidazole] are 1 to 100 nM and 100 to 1000 nM.
As for `Fc1ccc2nc(-n3cnc4ccc(OC(F)(F)F)cc43)n(C3CC3)c2c1` [Example 28, 1′-cyclopropyl-6′-fluoro-6-(trifluoromethoxy)-1′H-1,2′-bibenzo[d]imidazole], the IC50 was 100 to 1000 nM in experiment [1] and > 10000 nM in experiment [2].
On the same counts, the results for `Fc1cc2ncn(-c3nc4ccc(Cl)nc4n3C3CC3)c2cc1F` [Example 29, 5-chloro-3-cyclopropyl-2-(5,6-difluoro-1H-benzo[d]imidazol-1-yl)-3H-imidazo[4,5-b] pyridine] are 1 to 100 nM and 1000 to 10000 nM.

Values taken from patent US12358893B2, “Metalloenzyme inhibitor compounds” (Corxel Pharmaceuticals Hong Kong Limited, priority 2019, dated 2025).
